# Assay results: patent EP4257130A1, “INOBRODIB FOR USE IN THE TREATMENT OF PULMONARY ARTERIAL HYPERTENSION” (Justus-Liebig-Universität Gießen, priority 2022, dated 2023)
# What was measured:
# SuHx-PAH = SuHx-PAH rat model (SUGEN5416/chronic hypoxia): right heart catheterisation and histology; assay type: in vivo, SD-Ratten; settings: three times weekly for two weeks
# Text: (§1) Um das therapeutische Potenzial der EP300/CREBBP-Hemmung in vivo weiter zu erforschen, haben die Erfinder Versuchstiere in drei verschiedenen Nagetiermodellen mit etablierter PAH mit der Substanz CCS1477 behandelt, wobei CCS1477 durch orale Verabreichung über zwei Wochen lang dreimal wöchentlich verabreicht wurde. Es wurden folgende drei verschiedenen Nagetiermodelle für eine PAH (FHR-PAH, MCT-PAH und SuHx-PAH) getestet: • Fawn-hooded hypertensive Ratten (FHR): Das ist ein genetischer Rattenstamm, bei dem PAH im Alter spontan auftritt und der ähnliche PAH-Anomalien aufweist, wie sie bei IPAH bei Menschen nach 40 Wochen auftreten. • Durch Monocrotalin (MCT) induziertes PAH-Rattenmodell. • Ein SUGEN5416/chronische Hypoxie (SuHx)-Rattenmodell für PAH, bei dem die Ratten eine einmalige Injektion von SUGEN5416 erhielten und anschließend einer chronischen Hypoxie (10% O2) ausgesetzt wurden (SuHx-PAH).
# (§2) Für die MCT-PAH wurden männlichen und weiblichen SD-Ratten (Sprague-Dawley-Ratten) subkutan 60 mg/kg MCT (Sigma, Katalog: C2401) injiziert, um PAH zu induzieren. Bei der SuHx-PAH erhielten SD-Ratten eine einmalige subkutane Injektion von SUGEN5416 (20 mg/kg) und wurden drei Wochen lang einer normobaren Hypoxie ausgesetzt, bevor sie für zwei Wochen an die Raumluft zurückkehrten. Zwei Wochen nach der MCT-Injektion bzw. drei Wochen nach der SUGEN5416-Injektion (sobald PAH festgestellt wurde) wurden die Ratten nach dem Zufallsprinzip in vier Gruppen eingeteilt und erhielten zwei Wochen lang dreimal wöchentlich entweder Vehikel (Verabreichung von 1 % Methylcellulose in destilliertem Wasser oder intratracheale Vernebelung von 4 % DMSO in PBS als Negativkontrolle), CCS1477 (Verabreichung von 10 mg/kg in 1 % Methylcellulose + destilliertem Wasser). Einjährige männliche und weibliche FHR-Ratten mit etablierter PAH wurden in dieselben vier Gruppen wie beim MCT-Modell eingeteilt und denselben Behandlungsmethoden unterzogen. Nach zweiwöchiger Behandlung wurde eine Rechtsherzkatheteruntersuchung bei geschlossenem Thorax durchgeführt, um folgende hämodynamischen Daten zu erfassen: Systolischer Rechtsventrikulärer Druck (RVSP), mittlerer PA-Druck (mPAP), Herzzeitvolumen (CO) und Schlagvolumen (SV). Der Gesamtwiderstand der Lunge (TPR) wurde durch Division von mPAP durch CO ermittelt. Nach der hämodynamischen Messung wurden den Ratten Gewebeproben entnommen. Die Experimente wurden gemäß den Richtlinien des Canadian Council on Animal Care durchgeführt. Alle Protokolle wurden von der institutionellen Ethikkommission für Tiere (Tierschutzausschuss der Universität Laval) geprüft und genehmigt (Protokollnummer 2019-018-2). Alle Experimente folgten den Richtlinien für die präklinische Forschung bei PAH.
# (§3) • Abbildung 1: Umkehrung von PAH-Phänotypen durch therapeutische Modulation der dysregulierten HATs EP300 und CREBBP ex vivo • A: PAH-FBs wurden mit siRNAs (siP300) behandelt, die auf EP300 abzielen (n=3), um die genspezifische funktionelle Rolle von EP300 bei der Hyperproliferation ex vivo 48 Stunden nach der Transfektion zu untersuchen. Die Zellproliferation wurde durch BrdU-Inkorporation bestimmt. Die Werte wurden auf scrambled siRNA (siScr) normalisiert und sind als Mittelwert ± SD angegeben (n=3, ungepaarter t-Test; *P < 0,05 vs. scrambled siRNA). • B: PAH-FBs wurden mit verschiedenen Konzentrationen des EP300/CREBBP-Inhibitors CCS1477 oder dem Lösungsmittel DMSO inkubiert, um die Wirkung der selektiven EP300/CREBBP-Inhibition auf die Zellproliferation (bewertet durch BrdU-Inkorporation) zu untersuchen. Als Vergleichssubstanz wurde ein weiterer EP300/CREBBP-Inhibitor (SGC-CBP30) parallel dazu unter denselben Bedingungen inkubiert. […]
# PAH-FBs [1] = assay: Cell proliferation by BrdU incorporation in PAH fibroblasts; assay type: cell-based, Mensch; settings: PAH-FBs isolated ex vivo, various concentrations, 24 h, vs. DMSO
# Text: (§4) Diese Untersuchungen führten zu der Erkenntnis, dass die epigenetische Regulation der entwicklungsbedingten TF-Expression in der Lunge durch Modulation der EP300/CREBBP-Funktion rückgängig gemacht werden kann. Die Wirkung des niedermolekularen Inhibitors (Substanz, Wirkstoff) CCS1477 auf die Proliferation von Gefäßzellen, die Apoptose sowie die Gen- und Proteinexpression wurde mit Hilfe geeigneter Assays nach der Transfektion untersucht. Nachdem Zellen zur Subkonfluenz gewachsen sind, wurde ihnen mit steigenden Konzentrationen der selektive EP300-Inhibitor CCS1477 (Chemietek, Katalognummer: CT-CCS1477) hinzugefügt. Die aus PAH-Patienten isolierten FBs wurden also mit dem isoformselektiven HAT-Inhibitor CCS1477 behandelt. […]
# (§5) • Abbildung 1: Umkehrung von PAH-Phänotypen durch therapeutische Modulation der dysregulierten HATs EP300 und CREBBP ex vivo • A: PAH-FBs wurden mit siRNAs (siP300) behandelt, die auf EP300 abzielen (n=3), um die genspezifische funktionelle Rolle von EP300 bei der Hyperproliferation ex vivo 48 Stunden nach der Transfektion zu untersuchen. […] Skalenbalken: 50 µm. • E: Die Wirkung der P300-Inhibition (200 µM) auf den Gefäßumbau wurde durch Quantifizierung der prozentualen medialen Wanddicke in den mit dem EP300/CREBBP-Inhibitor CCS1477 inkubierten PCLS im Vergleich zu den mit DMSO inkubierten Kontrollen bewertet. […]
# PAH-SMCs [2] = assay: Apoptosis in PAH smooth muscle cells; assay type: cell-based, Mensch; settings: vs. DMSO
# Text: (§6) Diese Untersuchungen führten zu der Erkenntnis, dass die epigenetische Regulation der entwicklungsbedingten TF-Expression in der Lunge durch Modulation der EP300/CREBBP-Funktion rückgängig gemacht werden kann. Die Wirkung des niedermolekularen Inhibitors (Substanz, Wirkstoff) CCS1477 auf die Proliferation von Gefäßzellen, die Apoptose sowie die Gen- und Proteinexpression wurde mit Hilfe geeigneter Assays nach der Transfektion untersucht. Nachdem Zellen zur Subkonfluenz gewachsen sind, wurde ihnen mit steigenden Konzentrationen der selektive EP300-Inhibitor CCS1477 (Chemietek, Katalognummer: CT-CCS1477) hinzugefügt. Die aus PAH-Patienten isolierten FBs wurden also mit dem isoformselektiven HAT-Inhibitor CCS1477 behandelt. Gleichzeitig wurde den Zellen das Lösungsmittel DMSO (Sigma) mit entsprechenden Konzentrationen hinzugefügt.
# (§7) PAH-FBs wurden mit verschiedenen Konzentrationen der Substanz CCS1477 oder dem Lösungsmittel DMSO inkubiert, um die Zellproliferation und die Induktion von Apoptose 24 Stunden danach zu untersuchen. […]
# (§8) Das therapeutische Potenzial der EP300/CREBBP-Hemmung durch die Substanz CCS1477 wurde untersucht. […] Die Wirkung der EP300-Hemmung auf das vaskuläre Remodelling wurde durch Quantifizierung der prozentualen medialen Wanddicke in den mit der Substanz CCS1477 inkubierten PCLS im Vergleich zu den mit DMSO inkubierten Kontrollen bewertet. […]
# FHR-PAH = FHR-PAH rat model: right heart catheterisation and histology; assay type: in vivo, Fawn-hooded hypertensive Ratten; settings: FHR-PAH rats, three times weekly for two weeks
# Text: as §1, §2, §3
# PAH-PCLS = assay: Vascular remodelling (medial wall thickness) in precision-cut lung slices ex vivo; assay type: cell-based, Mensch; settings: human PAH-PCLS, 200 µM on days 2 and 6, fixed day 10, vessels 20-150 µm, vs. DMSO
# Text: Lungengewebeproben wurden von Patienten mit IPAH entnommen. Aus den mit 3% niedrigschmelzender Agarose gefüllten Lungenproben von Patienten mit IPAH wurden mit einem Vibratom (Leica Biosystems) Gewebeschnitte (400 µm dick) angefertigt. Die Lungengewebeschnitte wurden in DMEM-GlutaMAX-Medium mit 10 % fetalem Kälberserum, 1 % Penicillin/Streptomycin und 0,1 % Amphotericin B (Thermo Fisher Scientific) kultiviert, und die Behandlung wurde am zweiten Tag eingeleitet. Die Substanz CCS1477 wurde in einer Konzentration von 200 µM an den Tagen 2 und 6 verabreicht. Am 10. Tag wurde das Gewebe in 4% Paraformaldehyd (Roti-Histofix; Carl Roth) fixiert und in Paraffin eingebettet. Die mediale Wanddicke wurde in allen Gefäßen mit einer Größe von 20-150 µm in den Lungenschnitten gemessen.
# as §8, with “untersucht. Dazu wurde die Wirksamkeit auf PAH-FBs und PAH-SMCs geprüft, die aus den Lungenarterien von menschlichen PAH-Patienten und aus den Lungenarterien von Ratten mit MCT-PAH (Rattenmodell mit Monocrotalin) isoliert wurden.” for “untersucht.”
# MCT-PAH = MCT-PAH rat model: right heart catheterisation and histology; assay type: in vivo, SD-Ratten; settings: MCT-PAH rats, three times weekly for two weeks
# Text: as §1, §2, §3
# PAH-FBs [3] = assay: Apoptosis by Cell Death Detection ELISAPLUS in PAH fibroblasts; assay type: cell-based, Mensch; settings: PAH-FBs isolated ex vivo, various concentrations, 24 h, vs. DMSO
# Text: as §4, §5
# PAH-SMCs [4] = assay: Cell proliferation (hyperproliferative phenotype) in PAH smooth muscle cells; assay type: cell-based, Mensch; settings: vs. DMSO
# Text: as §6, §7, §8
# [5] = SUGEN5416/chronic hypoxia PAH rats, 10 mg/kg oral, vs. vehicle
# [6] = SuHx-PAH rats, 10 mg/kg in 1 % methylcellulose, oral, vs. vehicle
# [7] = 10 mg/kg in 1 % methylcellulose, oral, vs. vehicle
# [8] = 10 mg/kg oral, TPR = mPAP divided by CO
smiles,measurement,setting,value
"CO[C@H]1CC[C@H](n2c([C@@H]3CCCC(=O)N3c3ccc(F)c(F)c3)nc3cc(-c4c(C)noc4C)ccc32)CC1 [CCS1477, (S)-1-(3,4-difluorophenyl)-6-(5-(3,5-dimethylisoxazol-4-yl)-1-((1r,4S)-4-methoxycyclohexyl)-1H-benzo[d]imidazol-2-yl)piperidin-2-on]",CO,SuHx-PAH; [5],verbesserte CO und SV auch bei SUGEN5416/chronischer Hypoxie-PAH signifikant
same,SV,SuHx-PAH; [5],verbesserte CO und SV auch bei SUGEN5416/chronischer Hypoxie-PAH signifikant
same,RVSP,SuHx-PAH; [6],signifikanten Senkung
same,mPAP,SuHx-PAH; [6],signifikanten Senkung
same,mediale Wanddicke der distalen PAs,"SuHx-PAH; SuHx-PAH rats, 10 mg/kg oral",signifikant verringert
same,TPR,"SuHx-PAH; SuHx-PAH rats, 10 mg/kg oral, TPR = mPAP divided by CO",signifikanten Senkung
same,"hyperproliferativer Phänotyp (Zellproliferation, Einbau von BrdU)",PAH-FBs [1],schwächte den hyperproliferativen Phänotyp und die Apoptoserate von PAH-FBs und PAH-SMCs deutlich ab
same,Apoptoserate,PAH-SMCs [2],schwächte den hyperproliferativen Phänotyp und die Apoptoserate von PAH-FBs und PAH-SMCs deutlich ab
same,RVSP,FHR-PAH; [7],signifikanten Senkung
same,mPAP,FHR-PAH; [7],signifikanten Senkung
same,mediale Wanddicke der distalen PAs,FHR-PAH; 10 mg/kg oral,signifikant verringert
same,molekulare Marker für Myokardhypertrophie,FHR-PAH; 10 mg/kg oral,signifikant abgeschwächt
same,CO,"FHR-PAH; 10 mg/kg oral, vs. vehicle",verbesserten sich nach der Behandlung mit der Substanz CCS1477 bei FHR-PAH und MCT-PAH signifikant
same,SV,"FHR-PAH; 10 mg/kg oral, vs. vehicle",verbesserten sich nach der Behandlung mit der Substanz CCS1477 bei FHR-PAH und MCT-PAH signifikant
same,TPR,FHR-PAH; [8],signifikanten Senkung
same,mediale Wanddicke der umgestalteten PAs,PAH-PCLS,signifikante Verringerung der medialen Wanddicke
same,RVSP,MCT-PAH; [7],signifikanten Senkung
same,mPAP,MCT-PAH; [7],signifikanten Senkung
same,mediale Wanddicke der distalen PAs,MCT-PAH; 10 mg/kg oral,signifikant verringert
same,CO,"MCT-PAH; 10 mg/kg oral, vs. vehicle",verbesserten sich nach der Behandlung mit der Substanz CCS1477 bei FHR-PAH und MCT-PAH signifikant
same,SV,"MCT-PAH; 10 mg/kg oral, vs. vehicle",verbesserten sich nach der Behandlung mit der Substanz CCS1477 bei FHR-PAH und MCT-PAH signifikant
same,TPR,MCT-PAH; [8],signifikanten Senkung
same,"Apoptoserate (Induktion von Apoptose, Cell Death Detection ELISAPLUS)",PAH-FBs [3],schwächte den hyperproliferativen Phänotyp und die Apoptoserate von PAH-FBs und PAH-SMCs deutlich ab
same,hyperproliferativer Phänotyp,PAH-SMCs [4],schwächte den hyperproliferativen Phänotyp und die Apoptoserate von PAH-FBs und PAH-SMCs deutlich ab
